Among the test systems are KM12 colon; ACHN renal; UACC-62 melanoma; K-562 leukemia; U251 CNS; NCI-H23 lung; SF-268 CNS; SF-539 CNS; RXF 393 renal; CCRF-CEM leukemia.
What all share (assay): NCI-60 cell line screen, 48 h

This passage reports TGI and GI50 results from PubChem BioAssay (NCI).

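These data come from cells grown in 96-well plates and exposed to compound for 48 hours at five concentrations. The concentration for 50% growth inhibition is given as GI50. At the TGI there is no net growth.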

Turning to `Cc1ccc2c(c1)NC(=O)CC(c1ccccc1)=N2`, the TGI was greater than 100 µM with KM12 colon; greater than 100 µM with ACHN renal; greater than 100 µM in the assay on UACC-62 melanoma; 26.7 µM with K-562 leukemia; greater than 100 µM with U251 CNS; greater than 100 µM with NCI-H23 lung. Also, the TGI with SF-268 CNS and in the assay on SF-539 CNS was greater than 100 µM each time.
For `Cc1cc(=O)oc2cc(OCc3c(F)cccc3Cl)ccc12`, the TGI with ACHN renal was greater than 100 µM; with UACC-62 melanoma, 35 µM; in the assay with U251 CNS, 30.1 µM; in the assay on NCI-H23 lung, greater than 100 µM; in the assay with RXF 393 renal, 27.5 µM; in the assay with SF-268 CNS, greater than 100 µM. Moreover, the TGI in the assay with SF-539 CNS turned out to be 48.7 µM.
In the case of `CCCCOC(=O)NC(=O)c1cn(CCSCCOC(=O)NCCCCCCNC(=O)OCCSCCn2cc(C(=O)NC(=O)OCCCC)c(=O)[nH]c2=O)c(=O)[nH]c1=O`, the TGI is greater than 100 µM with KM12 colon; greater than 100 µM in the assay with ACHN renal; greater than 100 µM with UACC-62 melanoma; greater than 100 µM in the assay with K-562 leukemia; 74.1 µM with U251 CNS; 94.5 µM with NCI-H23 lung. Further, the TGI with RXF 393 renal, in the assay with SF-268 CNS and with SF-539 CNS was greater than 100 µM in each case.
Turning to `O=C(OCC1CO1)c1cccs1` (stereo not drawn), the TGI in the assay on KM12 colon, in the assay on ACHN renal, in the assay on UACC-62 melanoma, with K-562 leukemia, in the assay on NCI-H23 lung and in the assay on CCRF-CEM leukemia was greater than 100 µM in each case. Moreover, the TGI in the assay on RXF 393 renal and in the assay with SF-268 CNS was greater than 100 µM in each case.
`Nc1c(C(=O)Nc2ccccc2)[n+]([O-])c2ccccc2[n+]1[O-]`: the TGI in the assay on KM12 colon is 30.4 µM; in the assay on ACHN renal, 30.1 µM; with UACC-62 melanoma, 22.6 µM; with K-562 leukemia, greater than 100 µM; with U251 CNS, 26.3 µM; in the assay on NCI-H23 lung, 28.8 µM. Also, the TGI with CCRF-CEM leukemia is greater than 100 µM; in the assay with SF-268 CNS, greater than 100 µM; in the assay on SF-539 CNS it was 37.3 µM.
As for `CCOC(=O)/C=C/C(C(=O)/C=C/c1ccc(O)c(OC)c1)=C(O)\C=C\c1ccc(O)c(OC)c1`, the GI50 in the assay on KM12 colon is 3.96 µM; in the assay with ACHN renal, 2.36 µM; in the assay with UACC-62 melanoma it was 1.85 µM; in the assay on K-562 leukemia it was 5.66 µM; in the assay on U251 CNS, 0.613 µM; in the assay on NCI-H23 lung, 1.73 µM. Further, the GI50 was 3.62 µM in the assay with CCRF-CEM leukemia and 11.1 µM with SF-268 CNS. In addition, the TGI in the assay with KM12 colon was greater than 100 µM; in the assay with ACHN renal, 6.25 µM; in the assay with UACC-62 melanoma it was 3.76 µM; in the assay with K-562 leukemia it was greater than 100 µM; in the assay with U251 CNS, 12.5 µM; in the assay on NCI-H23 lung, 4.42 µM. Moreover, the TGI was greater than 100 µM with CCRF-CEM leukemia and 95.1 µM in the assay on SF-268 CNS.
Turning to `COc1ccc(/C=C\c2cc(OC)c(OC)c(OC)c2)cc1OC(=O)CCC(=O)O`, the TGI was greater than 100 µM in the assay with ACHN renal, greater than 100 µM with NCI-H23 lung, greater than 100 µM in the assay on CCRF-CEM leukemia and 45.1 µM in the assay with SF-268 CNS.
As to `CC(=O)OC1CC2(O)C3CCC4CC(O)CCC4(C)C3CCC2(C)C1C1=CC(=O)OC1` (stereo not drawn), the TGI in the assay with KM12 colon came out at 1.87 µM; in the assay on ACHN renal it was 0.147 µM; in the assay with UACC-62 melanoma, 0.475 µM; in the assay with K-562 leukemia, 1.87 µM; in the assay on U251 CNS, 0.427 µM; with NCI-H23 lung, 0.137 µM. The TGI worked out at 1.69 µM in the assay on CCRF-CEM leukemia, 0.15 µM with SF-268 CNS and 0.113 µM in the assay with SF-539 CNS.
In the case of `CO[C@@H]1CC(=O)C2(CC(=O)O[C@@H]2/C=C(\C)CCC=C(C)C)C[C@@H]1O` (stereo partly drawn), the GI50 in the assay with KM12 colon was 1.03 µM; with ACHN renal, 0.817 µM; in the assay on UACC-62 melanoma, 0.812 µM; with K-562 leukemia it was 0.829 µM; with U251 CNS it was 0.672 µM; with NCI-H23 lung it was 0.358 µM. Moreover, the figures for the GI50 in the assay on RXF 393 renal, with SF-268 CNS and in the assay on SF-539 CNS were 0.818 µM, 1.18 µM and 0.502 µM, respectively. The TGI in the assay with KM12 colon was 3.97 µM; with ACHN renal it was 1.78 µM; in the assay with UACC-62 melanoma it was 1.71 µM; in the assay on K-562 leukemia, greater than 50 µM; with U251 CNS, 1.4 µM; with NCI-H23 lung, 1.14 µM. Further, the TGI in the assay on RXF 393 renal is 2.92 µM; with SF-268 CNS it was 4.74 µM; with SF-539 CNS, 1.56 µM.
`Cc1ccc(SC2=CC(=O)c3nc4ccccc4c4ccnc2c34)cc1`: the GI50 was 20.9 µM in the assay with KM12 colon; 31 µM in the assay with ACHN renal; 43.3 µM in the assay on UACC-62 melanoma; 35.5 µM with K-562 leukemia; 30.2 µM with U251 CNS; 24.7 µM with NCI-H23 lung. In addition, the GI50 in the assay on RXF 393 renal was 21.9 µM; in the assay with SF-268 CNS, 29.7 µM; in the assay with SF-539 CNS it was 33.9 µM. The TGI is 47.5 µM with KM12 colon; greater than 100 µM in the assay with ACHN renal; greater than 100 µM with UACC-62 melanoma; greater than 100 µM with K-562 leukemia; greater than 100 µM in the assay with U251 CNS; greater than 73.9 µM in the assay on NCI-H23 lung. In addition, the TGI in the assay with RXF 393 renal is 50 µM; in the assay on SF-268 CNS, greater than 70.7 µM; with SF-539 CNS it was 83 µM.
Turning to `COc1ccc(-n2c3c(c4c(CN5CCOCC5)c(O)ccc42)CCc2ccccc2C3=O)cc1`, the GI50 with KM12 colon was greater than 100 µM; in the assay with ACHN renal, greater than 100 µM; in the assay with UACC-62 melanoma, greater than 100 µM; with K-562 leukemia it was 17.8 µM; with U251 CNS, 85.7 µM; in the assay on NCI-H23 lung, 24.9 µM. Besides, the GI50 in the assay on RXF 393 renal was 14.8 µM; with SF-268 CNS, greater than 100 µM; with SF-539 CNS, 61 µM. Moreover, the TGI with KM12 colon, in the assay with ACHN renal, in the assay with UACC-62 melanoma, in the assay with K-562 leukemia, in the assay with U251 CNS and in the assay with NCI-H23 lung was greater than 100 µM each time. In addition, the TGI in the assay with RXF 393 renal, with SF-268 CNS and in the assay on SF-539 CNS was greater than 100 µM in each case.
As to `Cc1cc(NS(=O)(=O)c2ccc(NC(=O)c3cccc4c(Nc5ccc(S(=O)(=O)N=C(N)N)cc5)c5ccccc5nc34)cc2)no1`, the TGI in the assay with KM12 colon, in the assay on ACHN renal, with UACC-62 melanoma, with K-562 leukemia, with U251 CNS and in the assay with NCI-H23 lung was greater than 100 µM each time. Besides, the TGI in the assay on RXF 393 renal, in the assay with SF-268 CNS and with SF-539 CNS was greater than 100 µM each time.
